According to US20140271604A1, “HDAC Inhibitor Polymorphic Forms and Methods of Use” (priority 2013, published 2014):
Entries after “also recorded” stand apart in the source; their conditions may differ. Each block holds one molecule with its values, some of them ahead of it.

Assays:
[1] = Storage of samples under ambient conditions, form assigned by XRPD; format: physicochemical
[2] = Stability study in climate chamber (48-72 h, 40° C./75% RH), form assigned by XRPD; conditions: for XRPD Form b: form assigned after the stability studies / XRPD Form c: form assigned after the stability studies: at 40° C./75% RH; for XRPD Form b: form assigned after the stability studies: samples from anti-solvent addition, label = form before stability; for Stability after storage in a climate chamber / XRPD pattern following storage exposure in the climate chamber: 48 to 72 hours at 40 degrees centigrade and 75% relative humidity
Method: Solubility assessment experiments were carried out in a variety of solvents followed by storage in a climate chamber for 48 to 72 hours at 40 degrees centigrade and 75% relative humidity.

[3] = 1-1.5 weeks ambient, cooling-evaporative crystallization, Table 6, label = form after recrystallization
[4] = 48-72 H, samples from cooling-evaporative crystallization, Table 6, label = form after recrystallization
[5] = 1-1.5 weeks ambient, slurry conversion, Table 9, label = form after slurry
[6] = 48-72 H, samples from slurry conversion, Table 9, label = form after slurry
[7] = 1-1.5 weeks ambient, cooling-evaporative crystallization, Table 7, label = form after recrystallization
[8] = 48-72 H, samples from cooling-evaporative crystallization, Table 7, label = form after recrystallization
[9] = 1.5-2 weeks ambient, solvent-drop grinding, Table 8, label = form after grinding
[10] = 46-72 H, samples from solvent-drop grinding, Table 8, label = form after grinding

SMILES: CC(C)[C@H](C(=O)Nc1ccc(C(=O)NO)cc1)c1ccccc1 [Wet sample]
XRPD Form b: form assigned after storage under ambient conditions [1, 3]: Form D1_wet** | XRPD Form b: form assigned after the stability studies ([2]; 48-72 H, Table 3): Form A + Am*; also recorded: Form W + Am* | XRPD Form c: form assigned after the stability studies [2, 4]: Form A

SMILES: CC(C)[C@H](C(=O)Nc1ccc(C(=O)NO)cc1)c1ccccc1 [Form L2, (S)—N-hydroxy-4-(3-methyl-2-phenylbutanamido)benzamide]
Stability after storage in a climate chamber [2]: exhibited a particular degree of stability

SMILES: CC(C)[C@H](C(=O)Nc1ccc(C(=O)NO)cc1)c1ccccc1 [Form R, (S)—N-hydroxy-4-(3-methyl-2-phenylbutanamido)benzamide]
XRPD Form b: form assigned after storage under ambient conditions [1, 7]: Form R | XRPD Form c: form assigned after the stability studies [2, 8]: Form A

SMILES: CC(C)C(C(=O)Nc1ccc(C(=O)NO)cc1)c1ccccc1 (stereo not drawn) [Form A7 + Am]
XRPD Form b: form assigned after storage under ambient conditions [1, 5]: Form A3 + Am* | XRPD Form c: form assigned after the stability studies [2, 6]: Form A + Am*

SMILES: CC(C)C(C(=O)Nc1ccc(C(=O)NO)cc1)c1ccccc1 (stereo not drawn) [Form A2 + Am]
XRPD Form b: form assigned after storage under ambient conditions [1, 3]: Form U1 + Am | XRPD Form c: form assigned after the stability studies [2, 4]: Form Z_wet**

SMILES: CC(C)[C@H](C(=O)Nc1ccc(C(=O)NO)cc1)c1ccccc1 [Form Z_wet]
XRPD Form b: form assigned after storage under ambient conditions [1, 3]: Form U1 + Am* | XRPD Form c: form assigned after the stability studies [2, 4]: Form Z_wet**

SMILES: CC(C)[C@H](C(=O)Nc1ccc(C(=O)NO)cc1)c1ccccc1 [Form G_gel, (S)—N-hydroxy-4-(3-methyl-2-phenylbutanamido)benzamide]
XRPD Form b: form assigned after the stability studies ([2]; 48-72 H, Table 3): Form A + Am*

SMILES: CC(C)[C@H](C(=O)Nc1ccc(C(=O)NO)cc1)c1ccccc1 [Form D1_wet]
XRPD Form b: form assigned after storage under ambient conditions [1, 3]: Form D1_wet** | XRPD Form b: form assigned after storage under ambient conditions [1, 7]: Form D1_wet | XRPD Form b: form assigned after the stability studies ([2]; 48-72 H, Table 3): Form D2 | XRPD Form c: form assigned after the stability studies [2, 4]: Form A_wet** | XRPD Form c: form assigned after the stability studies [2, 8]: Form A + Am*

SMILES: CC(C)C(C(=O)Nc1ccc(C(=O)NO)cc1)c1ccccc1 (stereo not drawn) [Form B1 + Form F5]
XRPD Form b: form assigned after the stability studies ([2]; 48-72 H, Table 3): Form A

SMILES: CC(C)C(C(=O)Nc1ccc(C(=O)NO)cc1)c1ccccc1 (stereo not drawn) [Form A + Form J1]
XRPD Form c: form assigned after the stability studies [2, 8]: Form J1

SMILES: CC(C)[C@H](C(=O)Nc1ccc(C(=O)NO)cc1)c1ccccc1 [Form T_wet, (S)—N-hydroxy-4-(3-methyl-2-phenylbutanamido)benzamide]
XRPD Form b: form assigned after the stability studies ([2]; 48-72 H, Table 5): Form A

SMILES: CC(C)C(C(=O)Nc1ccc(C(=O)NO)cc1)c1ccccc1 (stereo not drawn) [Form A + Form H1]
XRPD Form b: form assigned after the stability studies ([2]; 48-72 H, Table 3): Form A

SMILES: CC(C)C(C(=O)Nc1ccc(C(=O)NO)cc1)c1ccccc1 (stereo not drawn) [Form A3 + Am]
XRPD Form c: form assigned after the stability studies [2, 6]: Form A

SMILES: CC(C)C(C(=O)Nc1ccc(C(=O)NO)cc1)c1ccccc1 (stereo not drawn) [Form A + Form F1]
XRPD Form b: form assigned after storage under ambient conditions [1, 9]: Form A | XRPD Form c: form assigned after the stability studies [2, 10]: Form A

SMILES: CC(C)C(C(=O)Nc1ccc(C(=O)NO)cc1)c1ccccc1 (stereo not drawn) [Form Y + Am]
XRPD Form b: form assigned after storage under ambient conditions [1, 5]: Form M2 + Am* | XRPD Form c: form assigned after the stability studies [2, 6]: Form M2

SMILES: CC(C)[C@H](C(=O)Nc1ccc(C(=O)NO)cc1)c1ccccc1 [Form K_wet]
XRPD Form b: form assigned after storage under ambient conditions [1, 3]: Form A | XRPD Form c: form assigned after the stability studies [2, 4]: Form A

SMILES: CC(C)[C@H](C(=O)Nc1ccc(C(=O)NO)cc1)c1ccccc1 [Form A_minus, (S)—N-hydroxy-4-(3-methyl-2-phenylbutanamido)benzamide]
XRPD Form b: form assigned after the stability studies ([2]; 48-72 H, Table 3): Form A_minus | Stability after storage in a climate chamber [2]: exhibited a particular degree of stability

SMILES: CC(C)C(C(=O)Nc1ccc(C(=O)NO)cc1)c1ccccc1 (stereo not drawn) [Form W + Am]
XRPD Form b: form assigned after the stability studies ([2]; 48-72 H, Table 3): Form A + Form

SMILES: CC(C)[C@H](C(=O)Nc1ccc(C(=O)NO)cc1)c1ccccc1 [Form F4_wet, (S)—N-hydroxy-4-(3-methyl-2-phenylbutanamido)benzamide]
XRPD Form b: form assigned after storage under ambient conditions [1, 5]: Form A + Am* | XRPD Form c: form assigned after the stability studies [2, 6]: Form A + Am*

SMILES: CC(C)[C@H](C(=O)Nc1ccc(C(=O)NO)cc1)c1ccccc1 [Form X_gel, (S)—N-hydroxy-4-(3-methyl-2-phenylbutanamido)benzamide]
XRPD Form b: form assigned after storage under ambient conditions [1, 3]: Form U2 + Am* | XRPD Form c: form assigned after the stability studies [2, 4]: Form A_wet**

SMILES: CC(C)[C@H](C(=O)Nc1ccc(C(=O)NO)cc1)c1ccccc1 [Form A_min + Form T]
XRPD Form c: form assigned after the stability studies [2, 10]: Form A5a

SMILES: CC(C)C(C(=O)Nc1ccc(C(=O)NO)cc1)c1ccccc1 (stereo not drawn) [Form S + Am]
XRPD Form c: form assigned after the stability studies [2, 8]: Form A_plus

Now from value to molecule, other results behind:

XRPD Form b: form assigned after storage under ambient conditions [1, 3]: Form A | XRPD Form b: form assigned after storage under ambient conditions [1, 5]: Form A | XRPD Form c: form assigned after the stability studies [2, 4]: Form A | XRPD Form c: form assigned after the stability studies [2, 6]: Form A
SMILES: CC(C)[C@H](C(=O)Nc1ccc(C(=O)NO)cc1)c1ccccc1 [Form H1, (S)—N-hydroxy-4-(3-methyl-2-phenylbutanamido)benzamide]

XRPD Form b: form assigned after storage under ambient conditions [1, 7]: Form M1 | XRPD Form c: form assigned after the stability studies [2, 8]: Form M1 | XRPD pattern following storage exposure in the climate chamber [2]: remained unchanged
SMILES: CC(C)[C@H](C(=O)Nc1ccc(C(=O)NO)cc1)c1ccccc1 [Form M1, (S)—N-hydroxy-4-(3-methyl-2-phenylbutanamido)benzamide]
Stability after storage in a climate chamber [2]: exhibited a particular degree of stability

XRPD Form b: form assigned after storage under ambient conditions [1, 7]: Form M2 | XRPD Form c: form assigned after the stability studies [2, 8]: Form M2 | XRPD pattern following storage exposure in the climate chamber [2]: remained unchanged
SMILES: CC(C)[C@H](C(=O)Nc1ccc(C(=O)NO)cc1)c1ccccc1 [Form M2, (S)—N-hydroxy-4-(3-methyl-2-phenylbutanamido)benzamide]
Stability after storage in a climate chamber [2]: exhibited a particular degree of stability

XRPD Form b: form assigned after storage under ambient conditions [1, 9]: Form A5a | XRPD Form c: form assigned after the stability studies [2, 10]: Form A5a | XRPD pattern following storage exposure in the climate chamber [2]: remained unchanged
SMILES: CC(C)[C@H](C(=O)Nc1ccc(C(=O)NO)cc1)c1ccccc1 [Form A5a, (S)—N-hydroxy-4-(3-methyl-2-phenylbutanamido)benzamide]
Stability after storage in a climate chamber [2]: exhibited a particular degree of stability

XRPD Form b: form assigned after storage under ambient conditions [1, 7]: Form A7 | XRPD Form c: form assigned after the stability studies [2, 8]: Form A_plus
SMILES: CC(C)[C@H](C(=O)Nc1ccc(C(=O)NO)cc1)c1ccccc1 [Form A7, (S)—N-hydroxy-4-(3-methyl-2-phenylbutanamido)benzamide]

XRPD Form b: form assigned after storage under ambient conditions ([1]; 1-1.5 weeks ambient, cooling-evaporative crystallization, Table 7, label = form after recrystallization, slurry in dimethoxyethane/methanol): Form J2 | XRPD Form b: form assigned after storage under ambient conditions [1, 5]: Form J1 | XRPD Form b: form assigned after storage under ambient conditions [1, 9]: Form J1 | XRPD Form c: form assigned after the stability studies [2, 6]: Form J1 | XRPD pattern following storage exposure in the climate chamber [2]: remained unchanged
SMILES: CC(C)[C@H](C(=O)Nc1ccc(C(=O)NO)cc1)c1ccccc1 [Form J1, (S)—N-hydroxy-4-(3-methyl-2-phenylbutanamido)benzamide]
Stability after storage in a climate chamber [2]: exhibited a particular degree of stability

XRPD Form b: form assigned after storage under ambient conditions [1, 5]: Form A_wet** | XRPD Form b: form assigned after the stability studies ([2]; 48-72 H, Table 3): Form A + Am* | XRPD Form b: form assigned after the stability studies ([2]; 48-72 H, Table 5): Form A | XRPD Form c: form assigned after the stability studies [2, 8]: Form A | XRPD Form c: form assigned after the stability studies [2, 6]: Form A
SMILES: CC(C)[C@H](C(=O)Nc1ccc(C(=O)NO)cc1)c1ccccc1 [Form F1, (S)—N-hydroxy-4-(3-methyl-2-phenylbutanamido)benzamide]

XRPD Form b: form assigned after storage under ambient conditions [1, 7]: Form L2 | XRPD Form b: form assigned after storage under ambient conditions [1, 9]: Form A | XRPD Form c: form assigned after the stability studies [2, 10]: Form A
SMILES: CC(C)[C@H](C(=O)Nc1ccc(C(=O)NO)cc1)c1ccccc1 [Form A3, (S)—N-hydroxy-4-(3-methyl-2-phenylbutanamido)benzamide]

XRPD Form b: form assigned after storage under ambient conditions [1, 9]: Form A2 | XRPD Form c: form assigned after the stability studies [2, 10]: Form A
SMILES: CC(C)[C@H](C(=O)Nc1ccc(C(=O)NO)cc1)c1ccccc1 [Form H2, (S)—N-hydroxy-4-(3-methyl-2-phenylbutanamido)benzamide]

XRPD Form b: form assigned after storage under ambient conditions [1, 3]: Form L1 | XRPD Form b: form assigned after storage under ambient conditions [1, 7]: Form L1 | XRPD Form c: form assigned after the stability studies [2, 4]: Form L1 | XRPD Form c: form assigned after the stability studies [2, 8]: Form L1
SMILES: CC(C)[C@H](C(=O)Nc1ccc(C(=O)NO)cc1)c1ccccc1 [Form L1, (S)—N-hydroxy-4-(3-methyl-2-phenylbutanamido)benzamide]
Stability after storage in a climate chamber [2]: exhibited a particular degree of stability

XRPD Form b: form assigned after storage under ambient conditions [1, 7]: Form A3 | XRPD Form c: form assigned after the stability studies [2, 8]: Form A
SMILES: CC(C)[C@H](C(=O)Nc1ccc(C(=O)NO)cc1)c1ccccc1 [Form F2, (S)—N-hydroxy-4-(3-methyl-2-phenylbutanamido)benzamide]

XRPD Form b: form assigned after the stability studies ([2]; 48-72 H, Table 3): Form A
SMILES: CC(C)[C@H](C(=O)Nc1ccc(C(=O)NO)cc1)c1ccccc1 [Form A2, (S)—N-hydroxy-4-(3-methyl-2-phenylbutanamido)benzamide]

XRPD Form c: form assigned after the stability studies [2, 8]: Form A
SMILES: CC(C)[C@H](C(=O)Nc1ccc(C(=O)NO)cc1)c1ccccc1 [Form F3, (S)—N-hydroxy-4-(3-methyl-2-phenylbutanamido)benzamide]
